In paper PMC5340040 (BMC Biochemistry, 2017):
No end group written: not given here.

Key:
MgF-actin [1] = target: T1, MgF-actin (Oryctolagus cuniculus, UniProt P68135); experiment: Extent of F-actin bundling by low speed centrifugation; type: biochemical, rabbit
T1 construct: MgF-actin was polymerized from CaATP-G-actin by 30 min incubation with 2 mM MgCl2 at 22 °C; tissue Pel-Freez Biologicals (Rogers, AR) (acetone powder); host or cells: rabbit back and leg skeletal muscle
Description: CaATP-G-actin was stored in a buffer containing 5 mM TrisHCl, 0.2 mM CaCl2, 0.2 mM ATP, 0.5 mM β-mercaptoethanol, pH 8.0 (CaATP-G-buffer). MgF-actin was polymerized from CaATP-G-actin by 30 min incubation with 2 mM MgCl2 at 22 °C. MgF-actin was diluted for further treatments in MgF-buffer containing 5 mM 3-(N-morpholino) propanesulfonic acid (MOPS), 2 mM MgCl2, 0.2 mM ATP and 0.5 mM DTT, pH 7.4. The concentration of G- and F-actin was determined using the extinction coefficient E^1% 290 = 11.5 cm-^1. (The optical density of actin was measured in the presence of 0.5 M NaOH, which shifts the maximum of absorbance from 280 to 290 nm).
Extent of actin polymerization and bundling was measured by high speed centrifugation at 129,151 x g for 2 h and by low speed centrifugation at 20,800 x g for 8 min, respectively. The centrifugations were carried out at 4 °C. The supernatants were separated by 12% sodium dodecyl sulfate polyacrylamide electrophoresis (SDS−PAGE) and analyzed by densitometry using the TINA 2.07d software.
Bundling was carried out at low ionic strength. a and b bundling kinetics of 4 μM F-actin was followed by light scattering change as described in Methods. […] Upper panels quantitative evaluation of bundling, lower panels, representative SDS-PAGE of the supernatants
Effect of pH on bundling. […]

F-actin bundles = details: ref [9]; cited from earlier work
From the text: Both DNase1 and cofilin are actin binding proteins. DNase1 depolymerizes F-actin filament by binding to the protomer at the filaments ends and forming a tight complex with the protomer by attachment to its DNase1 binding loop (D-loop). […] Cofilin disassembles actin bundles by severing the filaments through its effect on the structure of actin protomers [[19] ...

MgF-actin [2] = target: T1, MgF-actin; experiment: Transglutaminase cross-linking to F-actin; type: binding, rabbit; details: 22 °C; for effect of phalloidin on extent of F-actin cross-linking: 4 μM F-actin, 8 μM Fl-peptide, 8 μM phalloidin, 0.3 mg/ml TGase, 30 min
From the text: Lower panels are representative SDS-PAGE-s. […] Lower panel, SDS-PAGE visualized by fluorescence
Upper panel, quantitative evaluation of SDS-PAGE by densitometry. Lower panel Coomassie blue stained representative SDS-PAGE

CaATP-G-actin [3] = details: ref [6], cited from earlier work
From the text: Transglutaminase (TGase) catalyzes the formation of isopeptide bonds, which cross-links proximal glutamine and lysine residues in proteins. The TGase reaction produces both intramolecular cross-links in proteins and intermolecular cross-links between proteins and peptides.

G-actin [4] = details: ref [6]; cited from earlier work
CaATP-G-actin [5] = details: 22 °C
Description: The reaction was stopped by addition of 1 mM cysteamine. Samples were subjected to 12% SDS-PAGE, visualized by Coomassie blue or fluorescence and evaluated by densitometry.
Samples were treated with TGase at 22 °C for 30 and run on SDS-PAGE and evaluated by densitometry as described in Methods.
Cross-linking with 0.3 mg/ml TGase for 30 min at 22 °C. Upper panel, quantitative evaluation of SDS-PAGE by densitometry.

actin = details: cited from earlier work
From the text: Actin is a negatively charged structural protein and the most abundant protein in the eukaryotic cells. Actin, released from dead cells, is also present in the saliva. Actin has important roles in cytoskeleton formation, cell division, motility, adhesion, signaling and more. Actin exists in either monomer globular (G) or polymer filament (F) form, which are interconvertible into each other.

[6] = test system: CaATP-G-actin (skeletal muscle); experiment: Actin polymerization, pyrene-actin fluorescence kinetics; type: biochemical, rabbit; details: 4 μM CaATP-G-actin; 8 μM histatin-3, 20 μM histatin-5, 7 μM LL-37; pH 6.5, 7.4 and 8.2; 22 °C
Description: Labeling of Mg-F-actin at Cys-374 with pyrene maleimide was carried out according to Kouyama and Mihashi with some modifications. CaATP-G-actin was filtered through a PD-10 column (GE Healthcare) equilibrated with β-mercaptoethanol-free CaATP-G-buffer. After filtration, G-actin (1 mg/ml) was polymerized by 2 mM MgCl2 and 100 mM KCl at 22 °C for 30 min, and reacted with pyrene maleimide (16 μg/ml) on ice, for 1 h. The reaction was terminated with 1 mM DTT. Labeled F-actin was centrifuged at 129,151 x g for 2 h; the pellet was resuspended in Ca-ATP-G-buffer and depolymerized by dialyzing in this buffer for 36 h at 4 °C with twice changing the buffer. Finally, actin was centrifuged again at 129,151 x g for 2 h. […] The concentration of modified actin was determined by the procedure of Bradford using unmodified actin as a standard. The extent of labeling was determined by using pyrene extinction coefficient E344 nm = 22,000 cm^−1M^−1, was ~100%.
Actin polymerization was followed by fluorescence increase (at 365 nm excitation and 386 nm emission wavelengths) of pyrene-labeled G-actin [17], which was added to unlabeled G-actin in 10–15%. The kinetics of bundling of MgF−actin was monitored by increase in light scattering, with both excitation and emission wavelengths adjusted to 450 nm. All fluorescence and light scattering measurements were carried out at 22 °C. […]

[7] = test system: CaATP-G-actin (skeletal muscle); details: ref [9]; cited from earlier work
Description: The pK of histidine is around pH 6.5 depending on the environment of the residue in the protein structure. This means that its charge changes with pH in the neutral pH region. Histidine is positively charged at slightly acidic pH and neutral above pH 7.0. Since actin polymerization is dependent on the number of positive charges of the polymerizing agent, the effect of pH 6.5, 7.4 and 8.2 on the polymerization of G-actin by histatins was measured (Fig. 1d).

TG-G-actin [8] = details: ref [6]; cited from earlier work
From the text: TGase catalyzes covalent cross-linking of glutamine and lysine residues in proteins. Since in the histatin-G-actin cross-linking reaction only actin contains glutamine residues, it follows that actin should be the glutamine donor in this case. […] Gln41 seems to be the preferred candidate for this role sinc ...

G-actin [9] = experiment: Inhibition of TGase cross-linking to G-actin by NaCl, DNase1 and cofilin; type: binding, rabbit; details: 6 μM Fl-histatin, 4 μM G-actin; for effect of NaCl on cross-linking to G-actin: 0.3 mg/ml TGase, 1 min
Description: Here we studied the effect of these agents on the cross-link formation between G-actin and histatins. In these experiments NaCl, histatins, TGase were added simultaneously to G-actin and incubated for 1 min only to avoid significant actin polymerization.
Samples were treated with TGase for 1 min. Upper panel, evaluation of SDS-PAGE. Lower panel, representative SDS-PAGE visualized by Coomassie blue. b Inhibition of cross-linking by DNase1 and cofilin. Samples were treated with TGase for 5 min

TG-G-actin [10] = experiment: Cross-linking to TGase pretreated G-actin (TG-G-actin) vs G-actin; cross-linking site; type: binding, rabbit; details: 4.5 μM Fl-histatin; for cross-linked product with TGase pretreated vs untreated G-actin: 4 μM G-actin or TG-G-actin, 0.3 mg/ml TGase, 30 min, 22 °C; for cross-linking site in the D-loop of G-actin: TG-G-actin (Gln41 blocked)
Description: Preparation of TG-G-actin: 108 μM CaATP-G-actin was incubated with 4 mg/ml TGase at 4 °C for 24 h. After cross-linking samples were run on SDS-PAGE and evaluated by densitometry. Upper panel quantitative evaluation of SDS-PAGE by densitometry. Lower panel representative SDS-PAGE visualized by Coomassie blue

[11] = test system: subtilisin / trypsin digested G-actin; experiment: Cross-linking to subtilisin or trypsin fragments of G-actin; type: binding, rabbit; details: 4 μM G-actin, 6 μM Fl-histatin, 0.3 mg/ml TGase, 30 min, 22 °C; for cross-linking to subtilisin fragments (Asp1-Met47 N-terminal, Gly48-Phe375 C-terminal): 1.5 μg/ml subtilisin; for cross-linking to Tyr69-Arg372 C-terminal tryptic fragment: 20 μg/ml trypsin
Description: Trypsin and subtilisin digestions were stopped by 40 μg/ml STI and 1 mM PMSF, respectively. Samples were run on SDS-PAGE. Left, lanes visualized by Coomassie blue; right, lanes visualized by fluorescence, marked by (*). Legend: (a) actin; (b) trypsin digested actin; (c) trypsin digested actin cross-linked with Fl-histatin-3 or Fl-histatin-5; (d) subtilisin digested actin; (e) subtilisin digested actin cross-linked with Fl-histatin-3 or Fl-histatin-5; nf), actin cross-linked with Fl-histatin-3 or Fl-histatin-5. a Fl-histatin-3-actin fragments cross-linked bands; b Fl-histatin-5-actin fragments cross-linked bands. Lane M, molecular weight marker

[12] = 4 μM G- or F-actin, 8 μM histatin-3 or 6 μM LL-37, 0.4 mg/ml TGase

**Q.** Which EC50 (MgF-actin [1]) does the source give for `CC(C)C[C@H](NC(=O)[C@H](Cc1ccc(O)cc1)NC(=O)[C@H](CC(N)=O)NC(=O)[C@H](CO)NC(=O)[C@H](CCCNC(=N)N)NC(=O)[C@H](Cc1ccc(O)cc1)NC(=O)CNC(=O)[C@H](CCCNC(=N)N)NC(=O)[C@H](Cc1c[nH]cn1)NC(=O)[C@H](CO)NC(=O)[C@H](Cc1c[nH]cn1)NC(=O)[C@H](Cc1c[nH]cn1)NC(=O)[C@H](CCCCN)NC(=O)[C@H](CCC(=O)O)NC(=O)[C@H](Cc1c[nH]cn1)NC(=O)[C@H](Cc1ccccc1)NC(=O)[C@H](CCCCN)NC(=O)[C@H](CCCNC(=N)N)NC(=O)[C@H](CCCCN)NC(=O)[C@H](Cc1ccc(O)cc1)NC(=O)CNC(=O)[C@H](Cc1c[nH]cn1)NC(=O)[C@H](Cc1c[nH]cn1)NC(=O)[C@H](CCCNC(=N)N)NC(=O)[C@H](CCCCN)NC(=O)[C@H](C)NC(=O)[C@H](Cc1c[nH]cn1)NC(=O)[C@H](CO)NC(=O)[C@@H](N)CC(=O)O)C(=O)N[C@@H](Cc1ccc(O)cc1)C(=O)N[C@@H](CC(=O)O)C(=O)N[C@@H](CC(N)=O)C(=O)O` [histatin-3] here?
**A.** The EC50 was 5 µM.

**Q.** For “LLGDFFRKSKEKIGKEFKRIVQRIKDFLRNLVPRTES [LL-37]”, which “disassembly of polycation induced actin bundles by DNase1 and cofilin” value (F-actin bundles) is on record?
**A.** The value was “DNase1 and cofilin disassemble LL-37 and lysozyme -induced actin bundles”.

**Q.** And the “extent of cross-link formation with F-actin vs G-actin” value (MgF-actin [2]; [12])?
**A.** The value was “significantly less than with G-actin”.

**Q.** And the “cross-linking of LL-37 to actin by TGase” value (CaATP-G-actin [3]; [25])?
**A.** The value was “can be cross-linked to actin by TGase”.

**Q.** And the “binding site on actin” value (CaATP-G-actin [3])?
**A.** Its value is “binds preferentially to the D-loop of actin”.

**Q.** And the “effect of pH on extent of F-actin bundling” value (MgF-actin [1]; 8 μM MgF-actin, 5 μM histatin-3, 12 μM histatin-5, 5 μM LL-37, pH 6.5, 7.3 and 8.2 (Fig. 2d), 3–16 μM histatins at pH 6.5 and 7.4 (Fig. S1))?
**A.** The value was “contrary to the bundling by LL-37”.

**Q.** And the “effect of 200 mM NaCl on extent of cross-linking by LL-37” value (G-actin [4])?
**A.** Its value is “did not affect the extent of cross-linking”.

**Q.** And the “cross-linking to G- and F-actin by TGase” value (CaATP-G-actin [5]; [12])?
**A.** Its value is “cross-linked to both G- and F-actin like LL-37”.

**Q.** And the “polymerization and bundling of actin, LL-37” value (actin; ref [9])?
**A.** Its value is “polymerize G-actin to F actin and bundle F-actin into actin bundles”.

**Q.** And the “effect of pH on kinetics of actin polymerization” value [6]?
**A.** The value was “much less pH-dependent than the polymerization by histatins”.

**Q.** And the “concentration at which G-actin is polymerized at neutral pH” value [7]?
**A.** Its value is “at about the same concentration as histatin-3”.

**Q.** What about the “cross-linking site of LL-37 on actin” value (TG-G-actin [8]) of the same compound?
**A.** Its value is “preferentially cross-linked to Gln-49”.

**Q.** For “Fl-histatin-3: tetramethylrhodamine labeled histatin-3 (DSHAKRHHGYKRKFHEKHHSHRGYRSNYLYDN; also: tetramethylrhodamine label, position not given here)”, which “effect of phalloidin on extent of F-actin cross-linking” value (MgF-actin [2]) is on record?
**A.** The value was “reduces greatly”.

**Q.** And the “effect of NaCl on cross-linking to G-actin” value (G-actin [9])?
**A.** The value was “NaCl inhibited the cross-linking”.

**Q.** What about the “cross-linked product with TGase pretreated vs untreated G-actin” value (TG-G-actin [10]) of the same compound?
**A.** Its value is “slightly less actin Fl-histatin-3 cross-linked products formed with TGase pretreated than with untreated G-actin”.

**Q.** And the “cross-linking site in the D-loop of G-actin” value (TG-G-actin [10])?
**A.** Its value is “Gln-49 is the main glutamine donor in the D-loop of actin”.

**Q.** What about the “cross-linking to subtilisin fragments (Asp1-Met47 N-terminal, Gly48-Phe375 C-terminal)” value [11] of the same compound?
**A.** Its value is “both fragments can be cross-linked”.

**Q.** And the “cross-linking to Tyr69-Arg372 C-terminal tryptic fragment” value [11]?
**A.** The value was “can be also cross-linked”.

**Q.** With “Fl-LL-37: tetramethylrhodamine labeled LL-37” as the compound, how does the “effect of phalloidin on extent of F-actin cross-linking” value (MgF-actin [2]) read?
**A.** Its value is “reduces greatly”.

**Q.** Which “effect of NaCl on cross-linking to G-actin” value (G-actin [9]) does the source give for Fl-histatin-5: FAM labeled histatin-5 here?
**A.** Its value is “NaCl inhibited the cross-linking”.

**Q.** What about the “inhibitory effect of cofilin on cross-linking, comparison of peptides” value (G-actin [9]; cofilin, TGase 5 min) of the same compound?
**A.** Its value is “less Fl-histatin-5 than with Fl-histatin-3”.

**Q.** And the “cross-linked product with TGase pretreated vs untreated G-actin” value (TG-G-actin [10])?
**A.** Its value is “the same amount of cross-linked product formed”.

**Q.** And the “cross-linking site in the D-loop of G-actin” value (TG-G-actin [10])?
**A.** The value was “does not cross-link to Gln41 of G-actin”.

**Q.** And the “cross-linking to subtilisin fragments (Asp1-Met47 N-terminal, Gly48-Phe375 C-terminal)” value [11]?
**A.** Its value is “cross-linked only to the C- but not to the N-terminal G-actin fragment”.

**Q.** And the “cross-linking to Tyr69-Arg372 C-terminal tryptic fragment” value [11]?
**A.** The value was “can be also cross-linked”.

**Q.** What about the “quantity of cross-linked product with G-actin, comparison” value (CaATP-G-actin [5]; 4 μM CaATP-G-actin, 4–8 μM Fl-histatin, 0.3 mg/ml TGase) of the same compound?
**A.** Its value is “consistently greater than that of Fl-histatin-3”.

**Q.** And the “extent of cross-linking to both G- and F-actin, comparison” value (CaATP-G-actin [5]; 4 μM G- and F-actin, 6 μM Fl-histatin, 0.3 mg/ml TGase)?
**A.** The value was “larger than that of Fl-histatin-3”.

**Q.** Which “polymerization and bundling of actin, lysozyme” value (actin; ref [8]) does the source give for “lysozyme: positively charged protein that interacts with actin” here?
**A.** Its value is “polymerize G-actin to F actin and bundle F-actin into actin bundles”.
